Measured values as given in patent US20180186796A1, “COMPOUNDS AND USES THEREOF” (LEAD DISCOVERY SIENA S.R.L., priority 2014, published 2018).
Converted amounts (≈) assume the structure as drawn. Structures can show the parent of a compound that is named as a salt. Where two headings read alike, the source gives them in different places.

How the values were obtained:
recombinant Fyn = recombinant Fyn (Homo sapiens, UniProt P06241); assay: Enzymatic assay on isolated Fyn kinase
Protocol: Kinase assays were performed in presence of 200 μM ATP and 100 μM peptide substrate. All inhibition assays were conducted with 0.01 μg active kinase, 0.33 μmol [^γ32P]ATP, 60 mM HEPES-NaOH pH 7.5, 3 μM Na-orthovanadate, 1.2 mM DTT, 50 μg/ml PEG20.0000, 10 mM magnesium acetate, 0.004% NP40 and 10% DMSO in a final volume of 10 μL. Fyn and inhibitors were preincubated in ice for 5 min; after addition of the substrates the reaction was conducted at 30° C. for 10 min. The reaction was stopped by adding 5 μL of 3% phosphoric acid. Aliquots (10 μL) were then transferred into a P30 Filtermat (PerkinElmer), washed five times with 75 mM phosphoric acid and once with acetone for 5 minute. The filter was dried and transferred to a sealable plastic bag, and scintillation cocktail (4 mL) was added. Spotted reactions were read in a MicroBeta Liquid (Perkinelmer) scintillation counter. The ID50 values were obtained according to the following equation:
Ki values toward recombinant Fyn were calculated using the equation:
according to a competitive mechanism of inhibition toward ATP substrate, where [SATP] is the concentration of ATP. Curve fitting was performed with the program GraphPad Prism version 5.00.

[1] = PAMPA, intestinal (GI) permeability; conditions: for Papp / Papp at 5 h, 0.5 mM: PAMPA; for Papp: Table 6; for PAMPA GI (MR %): Membrane Retention; for Papp at 5 h, 0.5 mM: pH 7.4
Recombinant human Abl = molecular target: T1, Recombinant human Abl (Homo sapiens, UniProt P00519); assay: Enzymatic assay on isolated Abl; type: biochemical; conditions: mean of at least two experiments
T1 construct: purchased Upstate
Protocol: Recombinant human Abl was purchased from Upstate.
Activity was measured in a filter binding assay using an Abl specific peptide substrate (Abtide, Upstate).

[2] = Microsomal stability assay; conditions: for Metabolic Stab.: percentage of unmodified parent drug, human liver microsomes 60 min
Water solubility assay = conditions: for H2O Solubility: Table 6; for solubility at 24 h / solubility thermodynamic at 24 h: water, 20 °C, thermodynamic from solid
Protocol: Each solid compound (1 mg) was added to 1 mL of water. […] The suspensions were filtered through a 0.45 μm nylon filter (Acrodisc), and the solubilized compound determined by LC-MS-MS assay. For each compound the determination was performed in triplicate. […] The flow rate was 0.2 mL min-^−1 and injection volume was 5 μL. The instrument operated in positive mode and parameters were: detector 1850 V, drying gas pressure 25.0 psi, desolvation temperature 300.0° C., nebulizing gas 40.0 psi, needle 5000 V and shield 600 V. Nitrogen was used as nebulizer gas and drying gas.
Solid compound (1 mg) was added to 1 mL of water. […] The suspensions were filtered through a 0.45-μm nylon filter (Acrodisc), and the solubilised compound determined by LC-UV-MS assay. The determination was performed in triplicate.
Chromatographic analysis was performed with the method above reported and quantification of compounds was made by comparison with apposite calibration curves realized with standard solutions in methanol.

Recombinant human Src = molecular target: T2, Recombinant human Src (Homo sapiens, UniProt P12931); assay: Enzymatic assay on isolated Src; type: biochemical
T2 construct: purchased Upstate (Lake Placid, N.Y.)
Description: Recombinant human Src was purchased from Upstate (Lake Placid, N.Y.).

[3] = Stability tests in phosphate buffer and methanol; type: physicochemical; conditions: 20° C., 48 h incubation
[4] = Enzymatic stability in human plasma; type: in vitro ADME; conditions: for half-life at 100 μM: human, pooled human plasma diluted with phosphate buffer, pH 7.4
PAMPA, BBB permeability = conditions: for PAMPA BBB (MR %): Membrane Retention; for Papp at 5 h, 0.5 mM: PAMPA, pH 7.4
K562 cells = assay: Antiproliferative activity on human cell line K562; type: cell-based; conditions: Homo sapiens, K562, read-out: Cellular Data (IC50, μM) K562
Protocol: In vitro experiments were carried out using the human Chronic Myelogeneous Leukemia cell line K562. Cells were purchased from American Type Culture Collection (ATCC, Manassas, Va., USA) and were cultured in RPMI medium supplemented with 10% Foetal Bovine Serum. […] Cell number and vitality were evaluated using the automatic cell counter NucleoCounteri (Chemometec, Denmark). Results from the NucleoCounter represented either total or non-viable cell concentration, depending on the sample preparation indicated by manufacturer.
In vitro experiments were carried out using the human Chronic Myelogeneous Leukemia cell line K562. Cells were purchased from American Type Culture Collection (ATCC, Manassas, Va., USA) and were cultured in RPMI medium supplemented with 10% Foetal Bovine Serum. […] Cell number and vitality were evaluated using the automatic cell counter NucleoCounter® (Chemometec, Denmark). Results from the NucleoCounter represented either total or non-viable cell concentration, depending on the sample preparation indicated by manufacturer.

[5] = methanol, read-out: Stability MeOH t1/2
[6] = phosphate buffer, pH 7.4, read-out: Stability PBS pH 7.4 t1/2
[7] = 37° C., read-out: Stability Human Plasma t1/2 (converted)
[8] = mean of at least two experiments, read-out: Enzymatic Data (Ki, μM) c-Src
[9] = read-out: t1/2 in human plasma (converted)

recombinant Fyn, sequence (P06241 whole entry, looked up): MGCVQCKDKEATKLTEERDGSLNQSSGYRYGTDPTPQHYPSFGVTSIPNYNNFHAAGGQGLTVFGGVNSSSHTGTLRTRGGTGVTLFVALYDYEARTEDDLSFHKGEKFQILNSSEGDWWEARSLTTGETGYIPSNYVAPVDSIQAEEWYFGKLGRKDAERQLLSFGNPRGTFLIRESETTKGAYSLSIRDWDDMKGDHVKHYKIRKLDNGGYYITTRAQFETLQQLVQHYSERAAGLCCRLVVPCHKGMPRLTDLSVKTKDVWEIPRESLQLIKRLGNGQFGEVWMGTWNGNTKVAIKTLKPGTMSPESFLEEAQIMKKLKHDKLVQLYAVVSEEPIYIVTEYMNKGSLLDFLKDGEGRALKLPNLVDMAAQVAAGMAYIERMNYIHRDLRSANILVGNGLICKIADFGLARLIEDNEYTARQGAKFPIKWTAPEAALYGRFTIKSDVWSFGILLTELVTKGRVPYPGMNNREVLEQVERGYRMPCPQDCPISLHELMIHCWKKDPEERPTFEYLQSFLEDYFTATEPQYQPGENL
T2 sequence (P12931 whole entry): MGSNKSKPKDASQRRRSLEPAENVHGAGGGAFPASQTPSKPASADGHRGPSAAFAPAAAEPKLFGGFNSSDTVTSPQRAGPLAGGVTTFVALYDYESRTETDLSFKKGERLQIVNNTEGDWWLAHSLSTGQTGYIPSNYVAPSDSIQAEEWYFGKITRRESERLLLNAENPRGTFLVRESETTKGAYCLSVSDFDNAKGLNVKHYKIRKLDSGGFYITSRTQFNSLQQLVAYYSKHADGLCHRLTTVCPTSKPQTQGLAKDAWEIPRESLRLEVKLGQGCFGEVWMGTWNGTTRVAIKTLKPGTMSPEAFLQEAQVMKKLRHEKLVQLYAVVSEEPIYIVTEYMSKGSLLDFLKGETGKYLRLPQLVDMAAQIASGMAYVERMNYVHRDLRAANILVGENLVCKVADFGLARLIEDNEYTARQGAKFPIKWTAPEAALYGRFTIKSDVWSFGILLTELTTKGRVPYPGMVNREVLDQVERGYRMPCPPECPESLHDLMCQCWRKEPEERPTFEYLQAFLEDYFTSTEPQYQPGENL
T1 sequence (P00519 whole entry): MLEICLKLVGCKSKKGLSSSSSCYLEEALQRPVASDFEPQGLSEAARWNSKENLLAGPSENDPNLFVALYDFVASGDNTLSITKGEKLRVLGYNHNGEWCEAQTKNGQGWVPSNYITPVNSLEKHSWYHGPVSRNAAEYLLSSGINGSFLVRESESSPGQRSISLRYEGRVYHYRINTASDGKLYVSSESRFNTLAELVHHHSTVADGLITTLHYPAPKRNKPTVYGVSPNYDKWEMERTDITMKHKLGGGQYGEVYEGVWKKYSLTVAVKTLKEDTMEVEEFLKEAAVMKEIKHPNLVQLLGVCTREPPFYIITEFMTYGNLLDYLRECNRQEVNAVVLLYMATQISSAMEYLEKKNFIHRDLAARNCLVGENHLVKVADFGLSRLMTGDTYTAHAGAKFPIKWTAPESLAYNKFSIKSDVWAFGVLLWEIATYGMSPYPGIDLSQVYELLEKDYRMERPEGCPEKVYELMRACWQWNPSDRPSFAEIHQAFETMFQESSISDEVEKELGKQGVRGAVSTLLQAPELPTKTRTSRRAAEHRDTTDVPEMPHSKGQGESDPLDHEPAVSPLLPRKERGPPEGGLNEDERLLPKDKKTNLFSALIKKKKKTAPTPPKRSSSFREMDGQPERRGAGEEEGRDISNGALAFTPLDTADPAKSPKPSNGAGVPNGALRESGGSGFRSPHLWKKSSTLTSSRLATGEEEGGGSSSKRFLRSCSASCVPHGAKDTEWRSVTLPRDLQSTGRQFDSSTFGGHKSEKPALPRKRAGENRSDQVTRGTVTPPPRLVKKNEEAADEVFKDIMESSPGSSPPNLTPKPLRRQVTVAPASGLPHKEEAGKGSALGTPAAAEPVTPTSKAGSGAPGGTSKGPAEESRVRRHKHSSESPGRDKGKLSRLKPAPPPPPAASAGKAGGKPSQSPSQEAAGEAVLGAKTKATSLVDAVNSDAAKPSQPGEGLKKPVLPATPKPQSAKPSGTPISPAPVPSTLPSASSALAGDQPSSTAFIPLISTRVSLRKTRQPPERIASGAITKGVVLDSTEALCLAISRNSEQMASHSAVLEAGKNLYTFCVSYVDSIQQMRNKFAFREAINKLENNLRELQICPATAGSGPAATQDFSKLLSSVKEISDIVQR

| Structure (SMILES) | melting point | Ki (Recombinant human Abl) | PAMPA GI (MR %) [1] | Papp at 5 h, 0.5 mM [1] | half-life at 500 μM [3, 5] | half-life at 500 μM [3, 6] | solubility at 24 h (Water solubility assay) | solubility thermodynamic at 24 h (Water solubility assay) | PAMPA BBB (MR %) (PAMPA, BBB permeability) | Papp at 5 h, 0.5 mM (PAMPA, BBB permeability) | further results |
| --- | --- | --- | --- | --- | --- | --- | --- | --- | --- | --- | --- |
| CC(Cn1nc(-c2ccccc2)c2c(N)ncnc21)c1ccccc1 (centres unmarked) [Si312, 3-Phenyl-1-(2-phenylpropyl)-1H-pyrazolo[3,4-d]pyrimidin-4-amine] | 105 to 109 °C |  |  |  |  |  |  |  |  |  | decreased Fyn activity on substitution of chlorine by methyl in N1 side chain (recombinant Fyn): about 10 fold |
| Nc1ncnc2c1c(-c1ccccc1)nn2CC(Cl)c1ccccc1 (centres unmarked) (as salt: hydrochloride) [Si244, 1-(2-Chloro-2-phenylethyl)-3-phenyl-1H-pyrazolo[3,4-d]pyrimidin-4-amine hydrochloride] | 129 to 132 °C |  |  |  |  |  |  |  |  |  |  |
| CC(C)Sc1nc(Nc2cccc(O)c2)c2cnn(CC(Cl)c3ccccc3)c2n1 (centres unmarked) [Si323] |  | 0.12 µM |  |  |  |  |  |  |  |  | Papp [1]: 4.53 10^−6 cm/sec; Metabolic Stab. [2]: 95%; H2O Solubility (Water solubility assay): 0.9 µg/mL; Ki (Recombinant human Src; read-out: Ki c-Src): 0.01 µM |
| CCC(C)Sc1nc(NCCc2ccccc2)c2cnn(CC(Cl)c3ccccc3)c2n1 (centres unmarked) [Si147, 6-(Sec-butylthio)-1-(2-chloro-2-phenylethyl)-N-(2-phenylethyl)-1H-pyrazolo[3,4-d]pyrimidin-4-amine] | 97 to 98 °C |  |  |  |  |  |  |  |  |  |  |
| CN1CCN(CCOC(=O)N(Cc2ccccc2Cl)c2ncnc3c2cnn3CC(Cl)c2ccc(Br)cc2)CC1 (centres unmarked) [proSi221, 2-(4-Methylpiperazin-1-yl)ethyl (1-(2-(4-bromophenyl)-2-chloroethyl)-1H-pyrazolo[3,4-d]pyrimidin-4-yl)(2-chlorobenzyl)carbamate] |  |  | (78.1) % | 2.38 ×10⁻⁶ cm/s | > 48 h | > 48 h | 3.09 µM (≈ 2 µg/mL) | 1.95 µg/mL (≈ 3.01 µM) | (79.4) % | 1.92 ×10⁻⁶ cm/s | half-life at 100 μM [4, 7]: > 48 h |
| Fc1cccc(Nc2nc(SC3CCCC3)nc3c2cnn3CC(Cl)c2ccccc2)c1 (centres unmarked) [drawing 179] |  | > 100 µM |  |  |  |  |  |  |  |  | Papp [1]: 14 10^−6 cm/sec; Metabolic Stab. [2]: 95%; Ki (Recombinant human Src; [8]): 0.11 µM |
| CN1CCN(CCOC(=O)N(Cc2ccccc2)c2ncnc3c2cnn3CC(Cl)c2ccccc2)CC1 (centres unmarked) [proS13, 2-(4-Methylpiperazin-1-yl)ethyl benzyl(1-(2-chloro-2-phenylethyl)-1H-pyrazolo[3,4-d]pyrimidin-4-yl)carbamate] |  |  | (40.1) % | 6.7 ×10⁻⁶ cm/s | > 48 h | > 48 h | 35.5 µM (≈ 18.9 µg/mL) | 18.8 µg/mL (≈ 35.2 µM) | (45.6) % | 5.01 ×10⁻⁶ cm/s | half-life at 100 μM [4, 7]: > 48 h; Metabolic Stab. % ([2]; percentage of unmodified drug, Table 8): 86.4% |
| CC(=O)c1ccc(-c2nn(CC(C)c3ccccc3)c3ncnc(N)c23)cc1 (centres unmarked) [Si336, 1-{4-[4-Amino-1-(2-phenylpropyl)-1H-pyrazolo[3,4-d]pyrimidin-3-yl]phenyl}ethanone] | 232 to 235 °C |  |  |  |  |  |  |  |  |  |  |
| CSc1nc(N(C(=O)OC(C)CN2CCN(C)CC2)c2cccc(Br)c2)c2cnn(CC(C)c3ccccc3)c2n1 (centres unmarked) [proSi278 (B), 1-(4-Methylpiperazin-1-yl)propan-2-yl (3-bromophenyl)(6-(methylthio)-1-(2-phenylpropyl)-1H-pyrazolo[3,4-d]pyrimidin-4-yl)carbamate] |  |  | (73.3) % | 2.15 ×10⁻⁶ cm/s | > 48 h | > 48 h | 5.37 µM (≈ 3.43 µg/mL) | 3.4 µg/mL (≈ 5.32 µM) | (70.6) % | 2.39 ×10⁻⁶ cm/s | Stability Human Plasma t1/2 ([4]; 37° C.): 10.40 h; half-life at 100 μM [4, 9]: 10.4 h |
| Clc1cccc(Nc2nc(SCCN3CCOCC3)nc3c2cnn3CC(Cl)c2ccccc2)c1 (centres unmarked) [Si181, 1-(2-chloro-2-phenylethyl)-N-(3-chlorophenyl)-6-((2-morpholinoethyl)thio)-1H-pyrazolo[3,4-d]pyrimidin-4-amine, reference compound] |  | 0.12 µM |  |  |  |  |  |  |  |  | Papp [1]: 9.5 10^−6 cm/sec; Metabolic Stab. [2]: 95%; H2O Solubility (Water solubility assay): 0.1 µg/mL; Ki (Recombinant human Src; [8]): 0.19 µM |
| Cc1ccc(-c2nn(CC(C)c3ccccc3)c3ncnc(N)c23)cc1 (centres unmarked) [Si338, 3-(4-Methylphenyl)-1-(2-phenylpropyl)-1H-pyrazolo[3,4-d]pyrimidin-4-amine] | 152 to 155 °C |  |  |  |  |  |  |  |  |  | decreased Fyn activity on substitution of chlorine by methyl in N1 side chain (recombinant Fyn; Si312 vs Si244, Si337 vs Si308, Si338 vs Si309): about 10 fold; Ki (recombinant Fyn; read-out: Ki Fyn): 0.995 µM |
| Oc1cccc(Nc2nc(SC3CCCC3)nc3c2cnn3CC(Cl)c2ccccc2)c1 (centres unmarked) [Si330] |  | 0.15 µM |  |  |  |  |  |  |  |  | Papp [1]: 3.91 10^−6 cm/sec; Metabolic Stab. [2]: 91%; H2O Solubility (Water solubility assay): 0.6 µg/mL; Ki (Recombinant human Src; read-out: Ki c-Src): 0.007 µM |
| CSc1nc(Nc2cccc(O)c2)c2cnn(CC(Cl)c3ccccc3)c2n1 (centres unmarked) [Si322] |  | 0.15 µM |  |  |  |  |  |  |  |  | Papp [1]: 5.92 10^−6 cm/sec; Metabolic Stab. [2]: 98%; H2O Solubility (Water solubility assay): 4.3 µg/mL; Ki (Recombinant human Src; read-out: Ki c-Src): 0.03 µM |
| Nc1ncnc2c1c(-c1ccc(F)cc1)nn2CC(Cl)c1ccccc1 (centres unmarked) [Si310, 1-(2-Chloro-2-phenylethyl)-3-(4-fluorophenyl)-1H-pyrazolo[3,4-d]pyrimidin-4-amine] | 203 to 206 °C |  |  |  |  |  |  |  |  |  | IC50 (K562 cells): 12.6 ± 14.8 µM; Ki (recombinant Fyn; read-out: Enzymatic Data (Ki, μM) Fyn): 0.36 µM |
| Fc1ccc(CCn2ncc3c(Nc4cccc(Cl)c4)nc(SCCN4CCOCC4)nc32)cc1 [Si327, N-(3-Chlorophenyl)-1-[2-(4-fluorophenyl)ethyl]-6-[(2-morpholin-1-ylethyl)thio]-1H-pyrazolo[3,4-d]pyrimidin-4-amine] | 127 to 128 °C |  |  |  |  |  |  |  |  |  | Ki (Recombinant human Src; read-out: Ki c-Src): ~0.1 µM |
| CCC(C)Sc1nc(NCc2ccccc2)c2cnn(CC(Cl)c3ccccc3)c2n1 (centres unmarked) [Si146, N-benzyl-6-(sec-butylthio)-1-(2-chloro-2-phenylethyl)-1H-pyrazolo[3,4-d]pyrimidin-4-amine] | 112 to 113 °C |  |  |  |  |  |  |  |  |  |  |
| Clc1cccc(Nc2nc(SC3CCCC3)nc3c2cnn3CC(Cl)c2ccccc2)c1 (centres unmarked) |  | > 100 µM |  |  |  |  |  |  |  |  | Ki (recombinant Fyn): > 100 µM; Ki (Recombinant human Src): > 100 µM |
| CSc1nc(N(CCc2ccccc2)C(=O)OCCN2CCN(C)CC2)c2cnn(CC(Cl)c3ccccc3)c2n1 (centres unmarked) [proSi35, 2-(4-methylpiperazin-1-yl)ethyl (1-(2-chloro-2-phenylethyl)-6-(methylthio)-1H-pyrazolo[3,4-d]pyrimidin-4-yl)(phenethyl)carbamate] |  |  | (86.1) % | 0.85 ×10⁻⁶ cm/s | > 48 h | > 48 h | 182 µM (≈ 108 µg/mL) | 107 µg/mL (≈ 180 µM) | (88.8) % | 0.01 ×10⁻⁶ cm/s | half-life at 100 μM [4, 7]: 35.3 h |
| CCC(CN1CCN(C)CC1)OC(=O)N(c1cccc(Br)c1)c1nc(SC)nc2c1cnn2CC(C)c1ccccc1 (centres unmarked) [proSi278 (C), 1-(4-Methylpiperazin-1-yl)butan-2-yl (3-bromophenyl)(6-(methylthio)-1-(2-phenylpropyl)-1H-pyrazolo[3,4-d]pyrimidin-4-yl)carbamate] |  |  | (88.1) % | 1.45 ×10⁻⁶ cm/s | > 48 h | > 48 h | 3.02 µM (≈ 1.97 µg/mL) | 1.96 µg/mL (≈ 3 µM) | (91.4) % | 0.93 ×10⁻⁶ cm/s | Stability Human Plasma t1/2 ([4]; 37° C.): 11.31 h; half-life at 100 μM [4, 9]: 11.3 h |
| CSc1nc(N(C(=O)OCCN2CCN(C)CC2)c2cccc(Cl)c2)c2cnn(CCc3ccccc3)c2n1 [proSi214, 2-(4-Methylpiperazin-1-yl)ethyl (3-chlorophenyl)(6-(methylthio)-1-phenethyl-1H-pyrazolo[3,4-d]pyrimidin-4-yl)carbamate] |  |  | (63.1) % | 4.69 ×10⁻⁶ cm/s | > 48 h | > 48 h | 11.2 µM (≈ 6.35 µg/mL) | 6.32 µg/mL (≈ 11.2 µM) | (49.7) % | 4.3 ×10⁻⁶ cm/s | half-life at 100 μM [4, 7]: 3.67 h |
